Structures are written as SMILES.

This note sets out measurements from a melting point compilation (Tetko et al.; mined from patent text by program, amines drawn as free bases though some values may be those of a salt).

As to `[N-]=[N+]=NCCCc1cc(-c2ccccc2)n(-c2ccc(S(N)(=O)=O)cc2)n1`, the melting point is 114 to 116 °C.

On to `CC(C)NC(=O)Nc1ccc2c(c1)C(c1ccccc1F)=NCC(=O)N2C`, for which the melting point is 185 to 188 °C. As for `CN1CCN(c2ccccc2C=CC(=O)Nc2ccc(C(F)(F)F)cc2)CC1`, the figure is 207 to 209 °C; as for `C=C1C[C@@H]2[C@H](CC[C@]3(C)C(=O)CC[C@@H]23)[C@@]2(C)CCC(=O)C(OC)=C12`, 196 to 198 °C. The same measure for `CCOC(=O)CCC(=O)c1ccc(C2CCCCC2)cc1`: 54 to 55 °C; for `CSCCC(NC(=O)c1ccc(COc2cccnc2)cc1Oc1ccccc1)C(=O)O` (stereo unspecified): 195 °C. As for `CCCc1cc(I)ccc1O`, the figure is 54 to 56 °C; as for `O=CCN1CCc2ccc(Br)cc2C1=O`, 95 to 96 °C; as for `O=[N+]([O-])c1cccc2ccc3nc(O)c(O)nc3c12`, greater than 300 °C. Regarding `C=CCCC(Oc1ccc(C(=O)Cl)cc1)C1CCCCC1` (stereo unspecified), the melting point was 22 to 25 °C. As for `Cc1cc(N(C)Cc2ccc(-c3ccc(C(F)(F)F)cc3)nc2C)cc(C)c1OCC(=O)O`, the figure is 137 to 138 °C; as for `Cc1ccc(C(=O)NCC(=O)N2CC2C#N)cc1` (stereo unspecified), 92 to 94 °C.

Compound `COc1ccc2cc([C@H](C)C(=O)OCC(CO[N+](=O)[O-])(CO[N+](=O)[O-])[N+](=O)[O-])ccc2c1` gave a melting point of 69 to 71 °C.

`CSc1nc2cc(C)nn2c2ncccc12` gave a melting point of 190 °C.

For the compound `CSc1nsc(N)c1C#N`, the melting point lay within 188 to 189 °C. The same measure for `C[C@H](NC(=O)OC(C)(C)C)C(=O)NCc1cccc(Nc2n[nH]c3ncnc(Nc4cccc(Cl)c4)c23)c1`: 150 to 153 °C; for `O=C1Cc2ccc(F)cc2C(c2ccc(Cl)cc2)N1` (stereo unspecified): 131 to 133 °C.

In turn, `O=c1c2ccccc2[nH]n1CSc1ccccc1` gave a melting point of 167 to 168 °C. Compound `COC(=O)c1nn(Cc2ccccc2)c2ccccc12` had a melting point of 72 to 73 °C. The same measure for `COc1cccc(Oc2c(Cl)ncnc2NS(=O)(=O)c2ccc(C(C)(C)C)cc2)c1`: 109 to 110 °C; for `COC(=O)C(=CN1CCCC1)C(=O)c1cc(F)c(Cl)cc1Cl`: 74 to 76 °C. The same measure for `CSc1ccc(-c2ccc(C(CCC(=O)O)=NO)cc2)cc1`: 162 to 164 °C. The same measure for `O=C(O)Cc1ccc(Oc2ccccc2CC(=O)O)cc1`: 150 to 152 °C; for `CCOc1c(Cl)cc([N+](=O)[O-])c(OCC)c1[N+](=O)[O-]`: 78 °C. Take `Cc1nc2cc3c(cc2c(=O)[nH]1)C(N(C)c1ccc(C(=O)NC(CCc2nnn[nH]2)C(=O)O)nc1)CC3` (racemic): the melting point was in the range of 248 to 250 °C. As for `O=c1c(C(F)(F)F)cn(C2CC(O)C(COCc3ccccc3)O2)c(=O)n1C1CCCO1` (stereo unspecified), the figure is 145 to 147 °C. As for `N#CCN(CC#N)c1nc(Cl)nc(Cl)n1`, the figure is 154 to 158 °C; as for `Cc1[nH]c(C(=O)Nc2ccc(C#N)cc2)c(C)c1-c1nc2ccc(C(=O)c3ccccc3)cc2[nH]1`, 252 to 254 °C; as for `O=C(NC1CCN(Cc2ccccc2)C1)C12CC3CC(CC(C3)C1)C2` (stereo unspecified), 130 to 132 °C. The same measure for `Cn1cnc2cc(NN)ccc2c1=O`: 208 to 211 °C; for `O=C(O)C(CCc1ccccc1)Oc1ccc(-c2ccc(-c3c(Cc4ccccc4)oc4ccccc34)cc2)cc1` (stereo unspecified): 152 to 154 °C. As to `CNC(=O)N(O)C(C)c1cc(C(C)(C)C)c(O)c(C(C)(C)C)c1` (stereo unspecified), the melting point is 159 to 160 °C. The same measure for `CCCOc1cccc(OCCC)c1C(=O)Nc1cc(C(C)(C)C)no1`: 85 to 87 °C.

The compound `Cc1cc(-n2nc(C(F)(F)F)cc2-c2ccc(-c3cscn3)cc2)ccc1S(C)(=O)=O` had a melting point of 147 to 149 °C. The compound `CCOC(=O)N1CCN(CCNc2ncnc3c2sc2nc(N4CCCC4)c4c(c23)CC(C)(C)OC4)CC1` registered a melting point of 97.8 to 99.1 °C. As for `C[C@H]1CCCN(C(=O)[C@@H]2Cc3ccccc3N2c2ccc(=S)n(C)n2)C1`, the figure is 249 to 252 °C. Regarding `CN(c1cccc2cc(C3=NCC(CCO)S3)[nH]c12)S(=O)(=O)c1ccccc1C(F)(F)F` (stereo unspecified), the melting point fell in the range of 153 to 154 °C. Compound `CN(C)c1ccc(C(NC(c2ccccc2)c2ccccc2)P(O)O)cc1` (stereo unspecified) showed a melting point of 205 °C. Turning to `CCCCCCCCCCCCCCCCn1c(C2=CC(=O)c3ccccc3C2=O)ccc1C1=CC(=O)c2ccccc2C1=O`, the melting point fell in the range of 40 to 43 °C.

As to `CC1(C)CCOC1=C(Sc1ccc(Cl)cc1)n1ccnc1`, the melting point worked out at 134 °C. `O=C(NC(c1ccccc1)c1cc2ccncc2[nH]1)c1ccccn1` (stereo unspecified) came in with a melting point of 102 to 110 °C. The same measure for `COc1cc2[nH]c(N(C)Cc3cccc(N)c3)nc(=O)c2c(C)c1OC`: 268 to 270 °C; for `O=C(O)c1cc(O)cc2ccccc12`: 210 to 212 °C. The same measure for `CN1CCC=C(c2cc3ccccc3c(=O)[nH]2)C1`: 214 to 216 °C.

With `O=C1C2=C(CCCC2)C(=O)N1c1cc2c(cc1F)nnn2-c1ccccc1O`, the melting point lay in the range of 274 to 275 °C. The same measure for `COC(=O)Cc1ccc(OCCNC(=O)C2Cc3ccccc3N2S(=O)(=O)c2ccc(-c3cccc(C(F)(F)F)c3)cc2)cc1C` (stereo unspecified): 53 to 57 °C; for `O=C1c2ccccc2-c2c1[nH]c(=O)c1ccccc21`: greater than 300 °C; for `Cc1oc(-c2ccccc2)nc1C=Cc1ccc(/C=C/C=O)cc1`: 191 to 192 °C. `COc1ccccc1C(=O)N(c1ccccc1)c1ccc(OCCN(C)C)cc1` yielded a melting point of 82.5 to 85.5 °C.

Turning to `CSc1c(C)n(C)c2ccccc12`, the melting point was in the range of 50 to 52 °C. As for `Cc1nnc2n1-c1ccc([N+](=O)[O-])cc1C(c1ccccc1)=NC2`, the figure is 233 to 234 °C. As for `CCCCC(=O)NC(C(=O)OCC)=C(N)SCC`, the figure is 110 °C; as for `O=[N+]([O-])c1ccccc1C(O)c1cc2c(Oc3ccc(Cl)cc3)cncc2s1` (stereo unspecified), 85 to 90 °C. As for `CN(C)CCNC(=O)c1c[nH]c(=S)n1C1CCc2c(F)cc(F)cc2C1` (stereo unspecified), the figure is 125 °C; as for `O=[N+]([O-])c1cc2c(Nc3cccc(Cl)c3)ncnc2cc1F`, 223 to 225 °C. Regarding `O=C(O)CCCc1cc2nc(Cl)ccc2n1S(=O)(=O)c1cccc2nccnc12`, the melting point amounted to 74 °C. As for `CN(C)c1ccc(C2(C#N)CCCC2)cc1`, the figure is 73 to 74 °C; as for `CCCCNS(=O)(=O)NC(=O)OCc1ccc(OCCOC)cc1Oc1ncc(C(F)(F)F)cc1Cl`, 164 to 165 °C. As for `Cn1c(CCN2CCC(c3ccccc3)CC2)nc2ccc3ccccc3c21`, the figure is 182 °C. Take `CC(C)c1cc(C(C)C)c(CC(=O)NS(=O)(=O)Oc2c(C(C)C)cc(CNC(=O)CN)cc2C(C)C)c(C(C)C)c1`: the melting point is 193 to 195 °C. As for `COc1ccc(-n2c(-c3sc(NC(=O)c4ccccc4)nc3-c3ccccc3)nc3ccccc3c2=O)cc1`, the figure is greater than 275 °C.

`CN(C)CCC1=Cc2ccccc2N(C)c2ccccc21` had a melting point of 78 °C. The compound `N#Cc1nc(-c2cc(Cl)cc(Cl)c2Cl)c(N)nc1N` returned a melting point of 277 to 279 °C.

Regarding `O=C(O)c1cccc(-c2ccc(-c3ccc(C(F)(F)F)cc3)o2)c1`, the melting point was 271 to 272 °C. The same measure for `O=S(=O)(Nc1cc(I)c(O)c2ccccc12)c1cccs1`: 134 to 136 °C; for `CC(=O)OC1CSC(Oc2ccc(-c3cncnc3)nc2Cl)C(OC(C)=O)C1OC(C)=O` (stereo unspecified): 168 °C. The compound `N#Cc1ccc(C(CC2CCCC2)C(=O)Nc2nccs2)cc1` (stereo unspecified) registered a melting point of 62 to 64 °C. As for `N#Cc1ccc(-c2ccc(OCc3ccc4ccccc4n3)cc2)c(-c2ccncc2)c1`, the figure is 190 to 193 °C; as for `CS(=O)(=O)c1ccc(C(=O)c2cnoc2C2CC2)c2c1OC(F)(F)O2`, 164 to 165 °C; as for `COC(=O)c1csc(CCCc2coc3nc(N)nc(N)c23)c1`, 156 to 157 °C. As for `COc1ccc(C(O)(C(F)(F)F)C(F)(F)F)cc1C=O`, the figure is 160 to 161 °C; as for `CNC(CSCC(=O)c1ccc2[nH]c3ncc(Cl)cc3c2c1)NC`, 176 to 177 °C. As for `O=C(Nc1cnccn1)N1CCN(c2nc(-c3cccc(F)c3)cs2)CC1`, the figure is 158 to 159 °C; as for `CCOCCOc1ccc(OCc2ccccc2)cc1`, 35 to 37 °C. The compound `COc1c(Cl)ccc(-c2cc(N)c(Cl)c(C(=O)NOCC3CC3)n2)c1F` displayed a melting point of 164 to 166 °C. As for `CC(=O)NC[C@H]1CN(c2ccc(N3CC(C)(O[Si](C)(C)C(C)(C)C)C3)c(F)c2)C(=O)O1`, the figure is 137 to 138 °C; as for `CCOC(=O)C1=Cc2cc(Cl)ccc2OC1C(F)(F)F` (stereo unspecified), 62 to 64 °C. The same measure for `N#Cc1cnn2c1N(C(=O)CN1CCN(C(=O)Nc3ccc(Cl)c(C(F)(F)F)c3)CC1)CC=C2c1cccc(C(F)(F)F)c1`: 214 to 216 °C.

`COc1nc(NC(=O)NS(=O)(=O)c2cccc3c2CCCC3)nc(OC)n1` returned a melting point of 171 to 173 °C. As for `CN(Cc1ccccc1)C(=O)c1cc2ccccc2c(-c2ccccc2Cl)n1`, the figure is 128 °C. As for `O=S(=O)(Cl)c1ccc(F)c2nonc12`, the figure is 64 to 66 °C; as for `CCC(C)n1ncn(-c2ccc(N3CCN(c4ccc(OC)cc4)CC3)cn2)c1=O` (stereo unspecified), 139 to 140 °C; as for `O=C(NN1CCc2ccccc2C1)Oc1ccc2c(c1)CN(Nc1ccncc1)C2`, 162 to 163 °C.

For `Cc1c(N2C[C@@H](N)[C@@H](C(C)C)C2)c(F)cc2c(=O)c(C(=O)O)cn([C@@H]3C[C@@H]3F)c12`, the melting point is 124 to 127 °C. The same measure for `COC(=O)C1(NC(=O)Cc2cc(Br)c(F)cc2C)CCN(OC)CC1`: 192 to 193 °C. As for `Cc1cc(SCc2oc(-c3ccc(C(F)(F)F)cc3)nc2C)ccc1OCC(=O)O`, the figure is 156 to 157 °C.
